Patent publication US5039797A, “2'-O-(4-benzoyl)benzoyl nucleoside cyclic monophosphate” (Yale University, priority 1989, dated 1991)
Where two headings read alike, the source gives them in different places.

Legend:
[1] = target: T1, Rod Light-Activated PDEase (Bos taurus, UniProt P11541+P23439)
T1 sequence (P11541 1-859): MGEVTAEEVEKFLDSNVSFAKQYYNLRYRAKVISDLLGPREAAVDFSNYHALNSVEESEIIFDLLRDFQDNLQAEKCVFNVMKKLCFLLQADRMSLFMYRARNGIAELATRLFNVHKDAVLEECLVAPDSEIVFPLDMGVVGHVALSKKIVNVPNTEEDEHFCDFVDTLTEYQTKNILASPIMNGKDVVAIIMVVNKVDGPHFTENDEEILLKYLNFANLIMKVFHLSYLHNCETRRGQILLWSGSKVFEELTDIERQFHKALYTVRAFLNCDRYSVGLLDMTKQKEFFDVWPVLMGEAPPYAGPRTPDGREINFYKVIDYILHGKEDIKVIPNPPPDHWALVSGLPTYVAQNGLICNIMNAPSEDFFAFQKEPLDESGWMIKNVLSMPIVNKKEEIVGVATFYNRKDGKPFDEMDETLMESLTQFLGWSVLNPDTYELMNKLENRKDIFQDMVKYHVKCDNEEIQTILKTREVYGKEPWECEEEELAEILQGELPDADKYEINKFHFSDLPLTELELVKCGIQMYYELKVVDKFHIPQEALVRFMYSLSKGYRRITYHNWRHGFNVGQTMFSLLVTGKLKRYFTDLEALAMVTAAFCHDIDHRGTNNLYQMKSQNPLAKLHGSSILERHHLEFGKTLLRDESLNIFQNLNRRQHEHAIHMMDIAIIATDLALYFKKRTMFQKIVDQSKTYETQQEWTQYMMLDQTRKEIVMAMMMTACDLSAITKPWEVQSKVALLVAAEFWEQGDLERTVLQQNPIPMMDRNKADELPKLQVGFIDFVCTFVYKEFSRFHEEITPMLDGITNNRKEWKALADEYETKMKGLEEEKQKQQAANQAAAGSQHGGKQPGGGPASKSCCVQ
T1 sequence (P23439 1-853): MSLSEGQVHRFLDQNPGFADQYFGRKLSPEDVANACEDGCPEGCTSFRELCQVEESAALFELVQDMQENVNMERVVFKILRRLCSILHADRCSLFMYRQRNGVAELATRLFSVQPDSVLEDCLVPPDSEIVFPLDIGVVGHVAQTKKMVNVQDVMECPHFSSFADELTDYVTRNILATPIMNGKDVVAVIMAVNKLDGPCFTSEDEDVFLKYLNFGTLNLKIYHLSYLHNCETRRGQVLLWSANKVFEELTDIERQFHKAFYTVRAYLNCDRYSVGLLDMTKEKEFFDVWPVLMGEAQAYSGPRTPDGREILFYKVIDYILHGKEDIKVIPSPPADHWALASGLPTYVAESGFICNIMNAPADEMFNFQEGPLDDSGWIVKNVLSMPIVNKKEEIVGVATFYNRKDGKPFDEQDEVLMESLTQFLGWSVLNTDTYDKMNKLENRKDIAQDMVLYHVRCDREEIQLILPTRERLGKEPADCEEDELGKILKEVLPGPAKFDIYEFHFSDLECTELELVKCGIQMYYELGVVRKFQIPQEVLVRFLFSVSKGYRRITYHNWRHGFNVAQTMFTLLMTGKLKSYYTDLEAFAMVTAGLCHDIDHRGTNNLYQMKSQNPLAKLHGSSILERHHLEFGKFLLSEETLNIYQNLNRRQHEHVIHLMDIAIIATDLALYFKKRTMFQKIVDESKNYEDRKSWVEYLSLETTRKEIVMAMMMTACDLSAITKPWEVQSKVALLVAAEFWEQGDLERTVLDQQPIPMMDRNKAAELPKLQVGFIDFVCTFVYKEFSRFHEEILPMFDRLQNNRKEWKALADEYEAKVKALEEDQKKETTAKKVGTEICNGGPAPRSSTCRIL

[2] = tested on: platelet phosphodiesterase; experiment: Inhibition of platelet phosphodiesterase activity (H3-cAMP hydrolysis); assay type: biochemical; settings: 5 minutes at 30° C, platelet preparations
Description: The IC50 's for 2'-0-(4-benzoyl)benzoyl guanosine 3',5'cyclic monophosphate and 2'-0-(4-benzoyl)benzoyl cyclic adenosine monophosphate were 3 and 10 μM, repsectively. Enzyme activity was assayed by incubation of platelet preparations with H^3 -cAMP for 5 minutes at 30° C. Activity was quenched by boiling the assay tubes for 1 minute. Each sample was run in triplicate. Analysis of H^3 -cAMP was performed according to the procedure of W. J. Thompson, W. L. Terasaki, P. M. Epstein and S. J. Strada, "Assay of Cyclic Nucleotide Phosphodiesterase and Resolution of Multiple Molecular Forms of the Enzyme", Adv. in Cyclic Nucleotide Research, 10, 69-92 (1979).

[3] = target: Type III cGMP phosphodiesterase; experiment: Lineweaver-Burke analysis of cGMP hydrolysis by toad photoreceptor rod outer segment membranes; assay type: biochemical
Description: FIG. 7 depicts a Lineweaver-Burke analysis of inhibitory effectiveness of 2'-0-(4-benzoyl)benzoyl guanosine 3',5'cyclic monophosphate versus 8-Br-cGMP. The data illustrated are cGMP hydrolysis velocities from toad photoreceptor rod outer segment membranes containing 20 nM Type III cGMP phosphodiesterase in the presence of 100 mM NaCl, 1 mM Tris-HCl, 1 MgCl2,20 μM p[NH]ppG (guanylylimididiphosphate), pH 7.4, and the indicated concentrations of substrate. Open squares indicate control velocities. […] Open circles and open triangles show the effect of 2 μM and 20uM 2'-0-(4-benzoyl)benzoyl guanosine 3',5'cyclic monophosphate respectively (Ki =0.3 μM).

[4] = target: cGMP PDE; experiment: Inhibition of cGMP phosphodiesterase in rat bladder; assay type: biochemical; settings: read-out: IC50, concentration required to cause 50% inhibition of the enzyme
Description: (§1) 2'-0-(4-benzoyl)benzoyl guanosine 3',5' cyclic monophosphate was assayed as an inhibitor of the cGMP and cAMP phoosphodiesterases in rat bladder. The inhibition of the two PDEases were assayed as per J. N. Wells, C. E. Baird, Y. J. Wu and J. G. Hardman, Biochem. Biophys. Acta, 384, 430, (1975). Expressed as IC50 's, the concentration required to cause 50% inhibition of the enzynme were as follows: […]

[5] = target: cAMP PDE; experiment: Inhibition of cAMP phosphodiesterase in rat bladder; assay type: biochemical; settings: read-out: IC50, concentration required to cause 50% inhibition of the enzyme
Description: as §1

[6] = tested on: intraocular pressure; experiment: Intraocular pressure in normal rabbits after topical administration; assay type: in vivo, rabbit
Text: Non-pigmented, normal (non-water-loaded) rabbits received topical administration to their eyes of 2'-0-(4)-benzoyl benzoyl guanosine 3',5'cyclic monophosphate as prepared according to Example 1.
The mean baseline IOP (intraocular pressure) for the rabbits was 17.5 mm Hg. It should be noted that the data presented in FIG. 1 and FIG. 2 are relative to time zero and normalized relative to the contralateral eye. The contralateral eye received a DMSO control lacking the inhibitor compound. It is believed that this is the most conservative way to represent the data.
Additionally, five rabbits were administered 2'-0-(4-benzoyl)benzoyl guanosine 3',5'cyclic monophosphate (and DMSO) in a sterile saline solution diluted 10- and 100-fold.
FIG. 1 depicts the results of increasing concentrations of 2'-0-(4-benzoyl)benzoyl guanosine 3',5' cyclic monophosphate on the intraocular pressure of normal rabbits. Pressures (±S.E.M) are relative to pressure at time zero and normalized with respect to that of the contralateral eye. Contralateral eyes received solutions containing (DMSO) vehicle without 2'-0-(4-benzoyl)benzoyl guanosine 3',5'cyclic monophosphate. […] Intraocular pressure was measured by applanation tonometry (using an Alcon Applanation Pneumotonograph) after topical application of proparacaine HCl […].

[7] = tested on: eye; experiment: Ocular tolerability in rabbits after topical administration; assay type: in vivo, rabbit
[8] = Solubility in solvents; assay type: physicochemical; settings: dmso, organic solvent or mixture; in water, ethanol or methanol and DSMO; read-out: upper limit of solubility
Description: The inventive compound favors organic solvents; the upper limit of solubility in water, ethanol or methanol and DSMO is approximately 100 mM. Butanol is also a good solvent, but probably not a very good vehicle.

[9] = Storage stability in DMSO; assay type: physicochemical; settings: stored at -20° C
Text: No preservative need be added.

[10] = footnote b: interpolated from Pannbacker et al 1972 and Chader et al 1974; read-out: Ki for Inhibition; cited from earlier work
[11] = footnote a: from Zimmerman et al 1985; read-out: Ki for Inhibition; cited from earlier work
[12] = 20 nM enzyme, 100 mM NaCl, 20 μM p[NH]ppG, pH 7.4, Ki calculated from slope/Km ratios, read-out: Ki

SMILES: CC(C)Cn1c(=O)n(C)c(=O)c2[nH]cnc21 [Isobutylmethylxanthine]
- Ki ([1]; read-out: Ki for Inhibition; footnote b: interpolated from Pannbacker et al 1972 and Chader et al 1974; cited from earlier work): ~100 µM

SMILES: COc1ccc(Cc2nccc3cc(OC)c(OC)cc23)cc1OC [Papaverine]
- Ki [1, 10]: ~50 µM

SMILES: Nc1ncnc2c1ncn2[C@@H]1O[C@@H]2COP(=O)(O)O[C@H]2[C@H]1OC(=O)c1ccc(C(=O)c2ccccc2)cc1 [2'-0-(4-benzoyl) benzoyl-adenosine 3',5' cyclic monophosphate]
- IC50 [2]: 10 µM

SMILES: Nc1nc2c(ncn2[C@@H]2O[C@@H]3COP(O)(=S)O[C@H]3[C@H]2O)c(=O)[nH]1 (some centres unmarked) [(Rp)-cGMP [S]]
- Ki [1, 11]: 90 µM

SMILES: Nc1nc2c(ncn2[C@@H]2O[C@@H]3COP(=O)(O)O[C@H]3[C@H]2O)c(=O)[nH]1 [cGMP, 3',5'cyclic guanosine monophosphate]
- Km ([1]; substrate cGMP; from Zimmerman et al 1985; read-out: Km (printed in column Ki for Inhibition); cited from earlier work): 0.04 mM

SMILES: Nc1nc2c(ncn2[C@H]2C[C@@H]3OP(=O)(O)OC[C@H]3O2)c(=O)[nH]1 [2'-Deoxy-cGMP]
- Ki [1, 11]: 76 µM

SMILES: Nc1nc(O)c2nc(Br)n([C@@H]3O[C@@H]4COP(=O)(O)O[C@H]4[C@H]3O)c2n1 [Example 8-Br-cGMP, 8-Br-3',5' cyclic guanosine monophosphate, reference compound]
- Ki [3, 12]: 6 µM
- Ki [1, 11]: 48 µM

SMILES: Cn1c(=O)c2[nH]cnc2n(C)c1=O [Theophyline]
- Ki [1, 10]: ~360 µM

SMILES: Nc1nc2c(ncn2[C@@H]2O[C@@H]3COP(=O)(O)O[C@H]3[C@H]2OC(=O)c2ccc(C(=O)c3ccccc3)cc2)c(=O)[nH]1 [2'-0-(4-benzoyl)benzoylguanosine 3',5'cyclic monophosphate]
- IC50 [4]: 0.5 µM
- IC50 [5]: 15.8 µM
- Ki [3, 12]: 0.3 µM
- Ki ([3]; Table 1, rod light-activated PDEase, inventive compound, read-out: Ki for Inhibition): 0.3 µM
- IC50 [2]: 3 µM
- effect on IOP ([6]; 10-fold diluted material (approximately 3 mM), compared with 35 mM in DMSO): about the same effect on IOP
- effect on IOP ([6]; 100-fold diluted compound (approximately 0.3 mM)): essentially no effect
- conjunctival hyperemia ([7]; compound (and DMSO) diluted ten-fold with saline solution): reduced
- change in pupil diameter ([7]; either eye, any concentration, topical): No significant change in pupil diameter
- conjunctival hyperemia ([7]; full concentration (in straight DMSO)): slight conjunctival hyperemia
- lid erythema or ciliary injection ([7]; topical): no lid erythema or ciliary injection were observed
- solubility [8]: ~100 mM
- stability in solution [9]: does not degrade

SMILES: CCCC(=O)Nc1nc2c(ncn2[C@@H]2O[C@@H]3COP(=O)(O)O[C@H]3[C@H]2OC(=O)CCC)c(=O)[nH]1 [N^2,O^2,-dibutyryl-cGMP]
- Ki [1, 11]: 66 µM

SMILES: Nc1nc2c(ncn2[C@@H]2O[C@@H]3COP(O)(=S)O[C@H]3[C@H]2O)c(=O)[nH]1 (some centres unmarked) [(Sp)-cGMP [S]]
- Ki [1, 11]: 25 µM

SMILES: CCCC(=O)Nc1nc2c(ncn2[C@@H]2O[C@@H]3COP(=O)(O)O[C@H]3[C@H]2O)c(=O)[nH]1 [N^2 -monobutyryl-cGMP]
- Ki [1, 11]: 258 µM

SMILES: CCCC(=O)O[C@@H]1[C@@H]2OP(=O)(O)OC[C@H]2O[C@H]1n1cnc2c(=O)[nH]c(N)nc21 [O^2,-monobutyryl-cGMP]
- Ki [1, 11]: 18 µM
